≈ marks a conversion by molar mass, not a printed value. Read-outs that look alike come from different tables or passages of the source.
Assays:
AGS cell line = tested on: AGS cell line; parameters: method as in Suttie et al. 87; details: ref Suttie et al. 87; cited from earlier work
A172 cell line = tested on: A172 cell line; parameters: method as in PMID 30405885; details: A172, 72 h, 200 µM; cited from earlier work
RPTEC cell line = experiment: Neutral red uptake assay on RPTEC cell line; assay type: cell-based; details: 100 µM, 72 h
Method: In order to evaluate the cytotoxic properties of the tested compounds (4a–d), a neutral red uptake (NR) assay was performed on the RPTEC cell line. Four concentrations were used: 10, 100, 250, and 500 µM of each compound. The compound 4a was rejected from further investigation on cancer cell lines due to its high cytotoxicity (53 and 67% at 100 and 250 µM, respectively). Furthermore, at a concentration of 500 µM, the compound 4a crystallized, which influenced the obtained results by attenuating cytotoxic activity. Cell lines were plated in 96-well plates at a density of 1 × 10^4 cells/well. After 24 h incubation, which allowed the cells to attach and start to proliferate, the culture media were replaced with 4a–d dissolved in the appropriate medium at concentrations of 1, 10, 50, 100, 150 and 200 µM. […] Negative (1% DMSO in medium) and positive (1 µM staurosporine) controls were also included. Plates were incubated at 37 °C for 24, 48, and 72 h before the neutral red uptake assay. […] A 100 µL quantity of destain solution consisting of 50% ethanol, 1% glacial acetic acid, and deionized water was added to each well. […] Absorption was measured at 540 nm excitation. The cells’ viability was calculated by comparing results from experimental sets with negative controls according to the formula: % viability=ODtest substance−ODblind/ODnegative control−ODblind×100

E. coli 25922 = experiment: Antimicrobial activity assay, microdilution; assay type: cell-based, Escherichia coli; details: concentration range from 0.5 µg/mL to 256 µg/mL
Method: (§1) In vitro antimicrobial and antifungal activity was screened using microdilution and modified Richard’s medium. The assay was performed for compounds 4a, 4b, 4c, and 4d with seven reference microbial strains from ATTC (E. coli 25922, S. aureus 43300, K. pneumoniae 700603, A. baumannii 19606, P. aeruginosa 27853, E. faecalis 29212, and C. albicans 10231).
(§2) Seven reference strains from the ATCC collection (Escherichia coli 25922, Staphylococcus aureus 43300, Klebsiella pneumoniae 13883, Acinetobacter baumannii 19606, Pseudomonas aeruginosa 27853, Enterococcus faecalis 29212, and Candida albicans 10231) were used. The assay was performed according to a modified version of Richard et al.’s protocol and ISO standards 20776-1:2019 and 16256:2021 [78, 79]. Microdilution with spectrophotometric measurement was used to calculate MIC50 (minimal inhibitory concentration which decreased the microorganisms’ viability to 50%) values. Briefly, compounds were prepared 100× concentrated in DMSO, and during the whole experiment, they were diluted to 1× with TSB. Serial dilutions of tested compounds were made directly on plates at a concentration range of 0.5 to 256 µg/mL. Microorganisms were incubated for 24 h at 37 °C (bacteria) or 25 °C (yeast) on Petri dishes with TSA. The bacteria/yeast suspensions were prepared at a density 5 × 10^5 CFU/mL (for bacteria) or 0.5–2.5 × 10^5 CFU/mL (for yeast) with TSB. Also, appropriate controls were contained in the experiment: the positive control consisted of a specific strain in TSB, and the negative control was TSB alone. To ensure that used strains were not modified and were still responding to antibacterial/antifungal compounds established by EUCAST, additional tests were conducted with levofloxacin, gentamicin, and amphotericin B. Microplates were incubated on a shaker for 24 h at 37 ± 1 °C or 25 ± 1 °C for the bacteria and yeast strains, respectively. After the incubation, spectrophotometric measurement was performed at 580 nm. MIC50 was calculated by comparing the results obtained for experimental sets with positive controls. Next, 50 µL aliquots of 1% (m/v) TTC solution were added to each well. The plates were incubated on the shaker for 24 h at 37/25 °C. In living microbial cells, colourless TTC is converted into red formazan crystals, which allows for visual observation and MBC/MFC (minimal bactericidal/fungicidal concentration) value assessment.

S. aureus 43300 = experiment: Antimicrobial activity assay, microdilution; assay type: cell-based, Staphylococcus aureus; details: concentration range from 0.5 µg/mL to 256 µg/mL
Method: as §1, §2

K. pneumoniae 700603 = experiment: Antimicrobial activity assay, microdilution; assay type: cell-based, Klebsiella pneumoniae; details: concentration range from 0.5 µg/mL to 256 µg/mL
Method: as §1, §2

A. baumannii 19606 = experiment: Antimicrobial activity assay, microdilution; assay type: cell-based, Acinetobacter baumannii; details: concentration range from 0.5 µg/mL to 256 µg/mL
Method: as §1, §2

P. aeruginosa 27853 = experiment: Antimicrobial activity assay, microdilution; assay type: cell-based, Pseudomonas aeruginosa; details: concentration range from 0.5 µg/mL to 256 µg/mL
Method: as §1, §2

E. faecalis 29212 = experiment: Antimicrobial activity assay, microdilution; assay type: cell-based, Enterococcus faecalis; details: concentration range from 0.5 µg/mL to 256 µg/mL
Method: as §1, §2

C. albicans 10231 = experiment: Antifungal activity assay, microdilution; assay type: cell-based, Candida albicans; details: concentration range from 0.5 µg/mL to 256 µg/mL
Method: as §1, §2

A172 [1] = experiment: Neutral red uptake assay on A172; assay type: cell-based, human; details: Homo sapiens, A 172, 72 h, A172, 72 h treatment
Method: (§3) Based on the results obtained for the RPTEC cell line, the following concentrations of 4b–d were chosen to be applied to neoplastic cell lines: 0.1, 1, 10, 25, 50, and 100 µM. A172, AGS, CaCo-2, HeLa, and HepG2 cancer cell lines were used to perform a neutral red uptake assay. The obtained results were compared with a negative control (cell lines incubated without tested compounds), and half-maximal inhibitory concentration (IC50) values were calculated. Cell lines were plated in 96-well plates at a density of 1 × 10^4 cells/well. After 24 h incubation, which allowed the cells to attach and start to proliferate, the culture media were replaced with 4a–d dissolved in the appropriate medium at concentrations of 1, 10, 50, 100, 150 and 200 µM. […] Negative (1% DMSO in medium) and positive (1 µM staurosporine) controls were also included. Plates were incubated at 37 °C for 24, 48, and 72 h before the neutral red uptake assay. The neutral red uptake assay was performed as described by Repetto et al.. Briefly, the medium from all wells was discarded, the attached cells were washed with 100 µL PBS, and then 100 µL of neutral red working solution in medium (40 µg/mL) was added to each well. The neutral red solution was incubated overnight in the same conditions as the cells and centrifuged before being added to the cells. The plates were incubated for at least 2 h at 37 °C, 5% CO2, in a humidified atmosphere. Next, the neutral red medium was removed, and the cells were washed with 100 µL PBS. A 100 µL quantity of destain solution consisting of 50% ethanol, 1% glacial acetic acid, and deionized water was added to each well. Plates were incubated for 30 min with constant shaking on a horizontal shaker at 37 °C. Absorption was measured at 540 nm excitation. The cells’ viability was calculated by comparing results from experimental sets with negative controls according to the formula: % viability=ODtest substance−ODblind/ODnegative control−ODblind×100

AGS = experiment: Neutral red uptake assay on AGS; assay type: cell-based, human; details: 72 h treatment
Method: as §3

CaCo-2 = experiment: Neutral red uptake assay on CaCo-2; assay type: cell-based; details: Homo sapiens; CaCo-2, 72 h treatment
Method: as §3

HeLa = experiment: Neutral red uptake assay on HeLa; assay type: cell-based; details: Homo sapiens, 72 h treatment
Method: as §3

HepG2 = experiment: Neutral red uptake assay on HepG2; assay type: cell-based; details: Homo sapiens; HepG2, 72 h treatment
Method: as §3

A172 [2] = tested on: A172; parameters: method as in PMID 33921108; details: cited from earlier work
Enterococcus faecalis = tested on: Enterococcus faecalis; parameters: method as in PMID 33921108; details: cited from earlier work

| melting point | Structure (SMILES) | MIC and MBC/MFC activity (E. coli 25922) | MIC and MBC/MFC activity (S. aureus 43300) | MIC and MBC/MFC activity (K. pneumoniae 700603) | MIC and MBC/MFC activity (A. baumannii 19606) | MIC and MBC/MFC activity (P. aeruginosa 27853) | MIC and MBC/MFC activity (E. faecalis 29212) | MIC and MBC/MFC activity (C. albicans 10231) | also measured |
| --- | --- | --- | --- | --- | --- | --- | --- | --- | --- |
|  | O=c1[nH]cc(F)c(=O)[nH]1 [5-fluorouracil] |  |  |  |  |  |  |  | LD50 (AGS cell line): 153.7 µM |
|  | Cn1nnc2c(C(N)=O)ncn2c1=O [TMZ, temozolomide] |  |  |  |  |  |  |  | cell viability (A172 cell line): below 70% |
| 178 °C | Cc1nc(-c2ccccc2)nc(Nc2ccc(F)cc2)c1C=Nc1ccc(F)cc1 [compound 4a, N-(4-fluorophenyl)-5-{[(4-fluorophenyl)imino]methyl}-6-methyl-2-phenylpyrimidin-4-amine] | Neither MIC nor MBC/MFC activity was observed | Neither MIC nor MBC/MFC activity was observed | Neither MIC nor MBC/MFC activity was observed | Neither MIC nor MBC/MFC activity was observed | Neither MIC nor MBC/MFC activity was observed | Neither MIC nor MBC/MFC activity was observed | Neither MIC nor MBC/MFC activity was observed | cytotoxicity (RPTEC cell line): 53% |
| 167 to 169 °C | COc1ccccc1N=Cc1c(C)nc(-c2ccccc2)nc1Nc1ccc(F)cc1 [compound 4c, N-(4-fluorophenyl)-6-methyl-2-phenyl-5-{[(2-methoxyphenyl)imino]methyl}pyrimidin-4-amine] | Neither MIC nor MBC/MFC activity was observed | Neither MIC nor MBC/MFC activity was observed | Neither MIC nor MBC/MFC activity was observed | Neither MIC nor MBC/MFC activity was observed | Neither MIC nor MBC/MFC activity was observed | Neither MIC nor MBC/MFC activity was observed | Neither MIC nor MBC/MFC activity was observed | IC50 (A172 [1]): > 100 µM; IC50 (AGS; Homo sapiens, 72 h): > 100 µM; IC50 (CaCo-2): > 100 µM; IC50 (HeLa): > 100 µM; IC50 (HepG2): > 100 µM |
| 210 °C | Cc1nc(-c2ccccc2)nc(Nc2ccc(F)cc2)c1C=Nc1ccc(Cl)c(C(F)(F)F)c1 [compound 4d, 5-[{[4-chloro-3-(trifluoromethyl)phenyl]imino}methyl]-N-(4-fluorophenyl)-6-methyl-2-phenylpyrimidin-4-amine] | Neither MIC nor MBC/MFC activity was observed | Neither MIC nor MBC/MFC activity was observed | Neither MIC nor MBC/MFC activity was observed | Neither MIC nor MBC/MFC activity was observed | Neither MIC nor MBC/MFC activity was observed | Neither MIC nor MBC/MFC activity was observed | Neither MIC nor MBC/MFC activity was observed | IC50 (A172 [1]): > 100 µM; IC50 (AGS): > 100 µM; IC50 (AGS; Homo sapiens, 72 h): 190 µM; IC50 (CaCo-2): > 100 µM; IC50 (HeLa): > 100 µM; IC50 (HepG2): > 100 µM |
|  | CCOc1ccc(N=Cc2c(C)nc(-c3ccccc3)nc2Nc2ccc(F)cc2)cc1 [compound III, 5-[(4-ethoxyphenyl)imino]methyl-N-(4-fluorophenyl)-6-methyl-2-phenylpyrimidin-4-amine] |  |  |  |  |  |  |  | IC50 (A172 [2]): 526 µM; MBC (Enterococcus faecalis): 32 µg/mL (≈ 75 µM); MIC (Enterococcus faecalis): 16 µg/mL (≈ 37.5 µM) |
|  | COc1cccc2c1C(=O)c1c(O)c3c(c(O)c1C2=O)C[C@@](O)(C(=O)CO)C[C@@H]3O[C@H]1C[C@H](N)[C@@H](O)[C@H](C)O1 [epirubicin] |  |  |  |  |  |  |  | LD50 (AGS cell line): 0.23 µM |
